Measurements as given in US10166279B2, “Vaccine” (Bergen Teknologioverføring AS, priority 2013, dated 2019).

Columns and labels:
[1] = tested on: anti-STp mAb clone 30; experiment: Competitive ELISA with anti-STp antibodies (polyclonal, mAbs clone 29, 30, 31); format: binding; settings: anti-STp mAb Clone 30, competitive ELISA
Description: (§1) The anti-STh mAb ST:G8 was kindly supplied by S. Visweswariah [Garrett & Visweswariah; PMID: 8950201]. The anti-STp mAbs clone 29, clone 30, and clone 31 were obtained from Fitzgerald Industries International.
ELISA-plates (Nunc Amino Immobilizer) were coated with STh-OvA conjugate in PBS, volume 100 μl per well (synthetic STh conjugated to OvA: For ST:G8 0.04 μl/well, for clone 29 and clone 30 0.01 μl/well). Plates were incubated overnight at 4 C. Subsequently, plates were emptied and blocked with PBS-T 1% OvA for 1h at 20° C. with shaking 180 rpm. After washing (3× with PBS-T) a volume of 60 μl of sample and 60 μl of primary antibody dilution was added to wells. Final dilutions of mAbs were as follows: ST:G8 1:6500, clone 29 1:16000, clone 30 1: 30000. Competitive incubation was performed for 90 minutes at 180 rpm, 20 C. Plates were then washed with 3×200 μl PBS-T and incubated at room-temperature for 1h with secondary antibody diluted in PBS-T 100 μl per well (anti-mouse dilution 1:400 for the ST:G8 ELISA, anti-mouse dilution 1:2000 for clone 29 and clone 30 ELISA). After renewed washing with 3×200 μl PBS-T, plates were developed with 100 μl developing buffer for 15-20 minutes. Developing was stopped by adding 50 μl NaOH 2M to each well, and OD was read at 405 nm with a Fluostar Optima plate reader.
For the clone 31 mAb a slightly different protocol was developed. […]

[2] = tested on: anti-STh mAb ST:G8; experiment: Competitive ELISA with anti-STh antibodies (polyclonal, mAb ST:G8); format: binding; settings: polyclonal and monoclonal (ST:G8) anti-STh antibodies
Description: Competitive STh ELISA was performed as previously described (PMID: 6520401; Lockwood and Robertson, J Immunol Methods. 1984 Dec. 31; 75(2):295-307) with minor modifications. A U-shaped microtiter plate (Linbro, Fisher Scientific, Göteborg, Sweden) was coated with STh-ovalbumin conjugate diluted in ELISA buffer (NaCl 128 mM, KCl 2.68 mM, KH2PO4 1.47 mM, Na2HPO4 8.10 mM; pH 7.0-7.2). The plate was covered with plate sealer and incubated overnight at 37° C. Contents of the wells were discarded by inversion. Additional protein binding sites were blocked by incubating with ovalbumin 1% (w/v) (Sigma-Aldrich) diluted in ELISA buffer. After incubation for 1 h at 37° C., wells were emptied and washed three times with wash buffer (ELISA buffer containing ovalbumin 0.05% (w/v) and Tween-20 0.05% (v/v)). 75 μL of samples containing STh and 75 μL of diluted antisera (Protein-A purified rabbit anti-STa kindly supplied by John D. Clements; Department of Microbiology and Immunology, Tulane University, New Orleans, USA) were added. Both dilutions were done in ELISA buffer containing ovalbumin 0.05% (w/v). Appropriate dilutions and concentrations of reagents were determined by checkerboard titrations. The plate was incubated for 2 h at 37° C., in a rotary incubator shaker (Infors HT, Bottmingen/Basel Switzerland) at 180 rpm. Wells were emptied and washed three times with wash buffer. 100 μL of anti-Rabbit IgG Alkaline Phosphatase Conjugate developed in goat (Sigma-Aldrich) diluted 1:400 in ELISA buffer with ovalbumin 0.05% (w/v) were add and incubated with not shaking for 1 h at 37° C. Wells were emptied and washed three times with wash buffer followed by addition of 100 μL of 4-Nitrophenyl phosphate disodium salt hexahydrate at 1 mg/mL in diethanolamine buffer (diethanolamine 9.7% (v/v), MgCl2×6H2O 0.49 mM; pH 9.8). After incubation for 30 min, the reaction was stopped with 50 μL 2N NaOH (VWR international) in each well. The absorbance was read in an automatic plate reader at 405 nm (FLUOstar OPTIMA; BMG Labtech, Germany). All samples were measured in triplicate.
as §1
ELISA-plates (Nunc Amino Immobilizer) were coated with STh-OvA conjugate in PBS, volume 100 μl per well (synthetic STh conjugated to OvA: For ST:G8 0.04 μl/well, for clone 29 and clone 30 0.01 μl/well). Plates were incubated overnight at 4 C. Subsequently, plates were emptied and blocked with PBS-T 1% OvA for 1h at 20° C. with shaking 180 rpm. […] Developing was stopped by adding 50 μl NaOH 2M to each well, and OD was read at 405 nm with a Fluostar Optima plate reader.

uroguanylin (NDDCELCVNVACTGCL) [endogenous peptide ligand of the GC-C receptor]
binding by anti-STp antibodies [1]: does not cross-react | binding by anti-STh antibodies [2]: bound
